Measurements reported in ChEMBL document CHEMBL4229333, “Effects of rigidity on the selectivity of protein kinase inhibitors” (Eur J Med Chem, 2018).
≈ marks a conversion by molar mass, not a printed value.

Assays:
[1] = molecular target: Mitogen-activated protein kinase 12 (Homo sapiens) (UniProt P53778); assay: Inhibition of P38-gamma (unknown origin) at 1 uM by mobility shift microfluidics platform based assay relative to control
[2] = molecular target: Maternal embryonic leucine zipper kinase (Homo sapiens) (UniProt Q14680); assay: Inhibition of MELK (unknown origin) at 1 uM by mobility shift microfluidics platform based assay relative to control
[3] = molecular target: Proto-oncogene tyrosine-protein kinase ROS (Homo sapiens) (UniProt P08922); assay: Inhibition of ROS (unknown origin) at 1 uM by mobility shift microfluidics platform based assay relative to control
[4] = molecular target: Serine/threonine-protein kinase Sgk1 (Homo sapiens) (UniProt O00141); assay: Inhibition of SGK1 (unknown origin) at 1 uM by mobility shift microfluidics platform based assay relative to control
[5] = molecular target: Death-associated protein kinase 3 (Homo sapiens) (UniProt O43293); assay: Inhibition of DAPK3 (unknown origin) at 1 uM by mobility shift microfluidics platform based assay relative to control
[6] = molecular target: Serine/threonine-protein kinase MRCK alpha (Homo sapiens) (UniProt Q5VT25); assay: Inhibition of MRCK-alpha (unknown origin) at 1 uM by mobility shift microfluidics platform based assay relative to control
[7] = molecular target: Serine/threonine-protein kinase N2 (Homo sapiens) (UniProt Q16513); assay: Inhibition of PKN2 (unknown origin) at 1 uM by mobility shift microfluidics platform based assay relative to control
[8] = molecular target: Non-receptor tyrosine-protein kinase TNK1 (Homo sapiens) (UniProt Q13470); assay: Inhibition of TNK1 (unknown origin) at 1 uM by mobility shift microfluidics platform based assay relative to control
[9] = molecular target: Receptor tyrosine-protein kinase erbB-4 (Homo sapiens) (UniProt Q15303); assay: Inhibition of ERB-B4 (unknown origin) at 1 uM by mobility shift microfluidics platform based assay relative to control
[10] = molecular target: Homeodomain-interacting protein kinase 1 (Homo sapiens) (UniProt Q86Z02); assay: Inhibition of HIPK1 (unknown origin) at 1 uM by mobility shift microfluidics platform based assay relative to control
[11] = molecular target: Dual specificity mitogen-activated protein kinase kinase 2 (Homo sapiens) (UniProt P36507); assay: Inhibition of MEK2 (unknown origin) at 1 uM by mobility shift microfluidics platform based assay relative to control
[12] = molecular target: Sphingosine kinase 2 (Homo sapiens) (UniProt Q9NRA0); assay: Inhibition of SPHK2 (unknown origin) at 1 uM by mobility shift microfluidics platform based assay relative to control
[13] = molecular target: MAP kinase-activated protein kinase 2 (Homo sapiens) (UniProt P49137); assay: Inhibition of MAPKAPK2 (unknown origin) at 1 uM by mobility shift microfluidics platform based assay relative to control
[14] = molecular target: Serine/threonine-protein kinase 24 (Homo sapiens) (UniProt Q9Y6E0); assay: Inhibition of MST3 (unknown origin) at 1 uM by mobility shift microfluidics platform based assay relative to control
[15] = molecular target: cAMP-dependent protein kinase catalytic subunit alpha (Homo sapiens) (UniProt P17612); assay: Inhibition of PRKACA (unknown origin) at 1 uM by mobility shift microfluidics platform based assay relative to control
[16] = molecular target: Mitogen-activated protein kinase 11 (Homo sapiens) (UniProt Q15759); assay: Inhibition of P38-beta (unknown origin) at 1 uM by mobility shift microfluidics platform based assay relative to control
[17] = molecular target: Homeodomain-interacting protein kinase 2 (Homo sapiens) (UniProt Q9H2X6); assay: Inhibition of HIPK2 (unknown origin) at 1 uM by mobility shift microfluidics platform based assay relative to control
[18] = molecular target: Proto-oncogene tyrosine-protein kinase receptor Ret (Homo sapiens) (UniProt P07949); assay: Inhibition of RET (unknown origin) at 1 uM by mobility shift microfluidics platform based assay relative to control
[19] = molecular target: Ephrin type-A receptor 4 (Homo sapiens) (UniProt P54764); assay: Inhibition of EPH-A4 (unknown origin) at 1 uM by mobility shift microfluidics platform based assay relative to control
[20] = Solubility of compound at 37 degC incubated for 24 hrs by HPLC method; format: physicochemical
[21] = molecular target: Ephrin type-B receptor 2 (Homo sapiens) (UniProt P29323); assay: Inhibition of EPH-B2 (unknown origin) at 1 uM by mobility shift microfluidics platform based assay relative to control
[22] = molecular target: Serine/threonine-protein kinase 38-like (Homo sapiens) (UniProt Q9Y2H1); assay: Inhibition of NDR2 (unknown origin) at 1 uM by mobility shift microfluidics platform based assay relative to control
[23] = molecular target: Serine/threonine-protein kinase SIK2 (Homo sapiens) (UniProt Q9H0K1); assay: Inhibition of SNF1LK2 (unknown origin) at 1 uM by mobility shift microfluidics platform based assay relative to control
[24] = test system: Serine/threonine-protein kinase B-raf (Homo sapiens), P15056 [V600E]; assay: Ratio of IC50 for inhibition of BRAF V600E mutant (unknown origin) after 20 mins by immunoblotting assay to IC50 for inhibition of full length FLAG-tagged BRAF V600E mutant (unknown origin) expressed in HEK293 cells assessed as decrease in MEK phosphorylation by immunoblotting assay; format: cell-based
[25] = test system: Leucine-rich repeat serine/threonine-protein kinase 2 (Homo sapiens), Q5S007 [G2019S]; assay: Inhibition of LRRK2 G2019S mutant (unknown origin) at 1 uM by mobility shift microfluidics platform based assay relative to control
[26] = molecular target: Phosphatidylinositol 4,5-bisphosphate 3-kinase catalytic subunit beta isoform (Homo sapiens) (UniProt P42338); assay: Inhibition of PI3K-beta (unknown origin) at 1 uM by mobility shift microfluidics platform based assay relative to control
[27] = molecular target: Dual specificity protein kinase CLK2 (Homo sapiens) (UniProt P49760); assay: Inhibition of CLK2 (unknown origin) at 1 uM by mobility shift microfluidics platform based assay relative to control
[28] = molecular target: Serine/threonine-protein kinase Nek1 (Homo sapiens) (UniProt Q96PY6); assay: Inhibition of NEK1 (unknown origin) at 1 uM by mobility shift microfluidics platform based assay relative to control
[29] = molecular target: MAP/microtubule affinity-regulating kinase 4 (Homo sapiens) (UniProt Q96L34); assay: Inhibition of MARK4 (unknown origin) at 1 uM by mobility shift microfluidics platform based assay relative to control
[30] = molecular target: Testis-specific serine/threonine-protein kinase 2 (Homo sapiens) (UniProt Q96PF2); assay: Inhibition of TSSK2 (unknown origin) at 1 uM by mobility shift microfluidics platform based assay relative to control
[31] = molecular target: Serine/threonine-protein kinase B-raf (Homo sapiens, UniProt P15056, V600E); assay: Inhibition of full length FLAG-tagged BRAF V600E mutant (unknown origin) expressed in HEK293 cells assessed as decrease in MEK phosphorylation by immunoblotting assay; format: cell-based
[32] = molecular target: Mitogen-activated protein kinase kinase kinase kinase 2 (Homo sapiens) (UniProt Q12851); assay: Inhibition of MAP4K2 (unknown origin) at 1 uM by mobility shift microfluidics platform based assay relative to control
[33] = molecular target: Fibroblast growth factor receptor 2 (Homo sapiens) (UniProt P21802); assay: Inhibition of FGFR2 (unknown origin) at 1 uM by mobility shift microfluidics platform based assay relative to control
Chain of Fibroblast growth factor receptor 2 (Homo sapiens) (P21802 22-821 limits assumed): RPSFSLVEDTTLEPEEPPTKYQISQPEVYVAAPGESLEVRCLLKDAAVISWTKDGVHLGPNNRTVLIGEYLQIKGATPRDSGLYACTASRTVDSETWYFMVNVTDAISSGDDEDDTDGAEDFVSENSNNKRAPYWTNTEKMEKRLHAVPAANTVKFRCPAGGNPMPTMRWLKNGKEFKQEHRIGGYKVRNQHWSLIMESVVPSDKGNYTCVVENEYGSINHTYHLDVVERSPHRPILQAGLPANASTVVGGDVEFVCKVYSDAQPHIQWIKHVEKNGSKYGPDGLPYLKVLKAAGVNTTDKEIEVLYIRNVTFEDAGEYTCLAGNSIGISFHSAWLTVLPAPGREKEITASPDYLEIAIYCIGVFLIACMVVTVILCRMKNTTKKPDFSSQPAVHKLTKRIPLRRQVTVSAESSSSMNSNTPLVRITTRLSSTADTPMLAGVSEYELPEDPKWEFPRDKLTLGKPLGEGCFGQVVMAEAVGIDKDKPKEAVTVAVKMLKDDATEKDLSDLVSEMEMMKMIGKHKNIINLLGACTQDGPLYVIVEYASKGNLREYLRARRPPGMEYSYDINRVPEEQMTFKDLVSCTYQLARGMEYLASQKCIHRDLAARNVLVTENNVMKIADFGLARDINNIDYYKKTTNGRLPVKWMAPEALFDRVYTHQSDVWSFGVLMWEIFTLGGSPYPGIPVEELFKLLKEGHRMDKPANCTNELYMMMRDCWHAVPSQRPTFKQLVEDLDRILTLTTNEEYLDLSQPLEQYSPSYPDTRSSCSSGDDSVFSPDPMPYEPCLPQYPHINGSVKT

Chain of Dual specificity mitogen-activated protein kinase kinase 2 (Homo sapiens) (P36507 whole entry): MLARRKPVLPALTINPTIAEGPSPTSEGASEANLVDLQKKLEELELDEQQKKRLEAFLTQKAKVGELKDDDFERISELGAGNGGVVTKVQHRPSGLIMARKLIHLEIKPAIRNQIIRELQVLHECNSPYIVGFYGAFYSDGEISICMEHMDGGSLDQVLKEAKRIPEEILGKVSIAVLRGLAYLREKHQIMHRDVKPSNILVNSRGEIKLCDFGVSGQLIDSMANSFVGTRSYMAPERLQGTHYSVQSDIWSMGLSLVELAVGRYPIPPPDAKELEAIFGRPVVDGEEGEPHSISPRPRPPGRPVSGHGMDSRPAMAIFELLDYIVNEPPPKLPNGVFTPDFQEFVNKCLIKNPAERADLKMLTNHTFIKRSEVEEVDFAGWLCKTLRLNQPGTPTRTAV
Chain of Homeodomain-interacting protein kinase 1 (Homo sapiens) (Q86Z02 whole entry, looked up): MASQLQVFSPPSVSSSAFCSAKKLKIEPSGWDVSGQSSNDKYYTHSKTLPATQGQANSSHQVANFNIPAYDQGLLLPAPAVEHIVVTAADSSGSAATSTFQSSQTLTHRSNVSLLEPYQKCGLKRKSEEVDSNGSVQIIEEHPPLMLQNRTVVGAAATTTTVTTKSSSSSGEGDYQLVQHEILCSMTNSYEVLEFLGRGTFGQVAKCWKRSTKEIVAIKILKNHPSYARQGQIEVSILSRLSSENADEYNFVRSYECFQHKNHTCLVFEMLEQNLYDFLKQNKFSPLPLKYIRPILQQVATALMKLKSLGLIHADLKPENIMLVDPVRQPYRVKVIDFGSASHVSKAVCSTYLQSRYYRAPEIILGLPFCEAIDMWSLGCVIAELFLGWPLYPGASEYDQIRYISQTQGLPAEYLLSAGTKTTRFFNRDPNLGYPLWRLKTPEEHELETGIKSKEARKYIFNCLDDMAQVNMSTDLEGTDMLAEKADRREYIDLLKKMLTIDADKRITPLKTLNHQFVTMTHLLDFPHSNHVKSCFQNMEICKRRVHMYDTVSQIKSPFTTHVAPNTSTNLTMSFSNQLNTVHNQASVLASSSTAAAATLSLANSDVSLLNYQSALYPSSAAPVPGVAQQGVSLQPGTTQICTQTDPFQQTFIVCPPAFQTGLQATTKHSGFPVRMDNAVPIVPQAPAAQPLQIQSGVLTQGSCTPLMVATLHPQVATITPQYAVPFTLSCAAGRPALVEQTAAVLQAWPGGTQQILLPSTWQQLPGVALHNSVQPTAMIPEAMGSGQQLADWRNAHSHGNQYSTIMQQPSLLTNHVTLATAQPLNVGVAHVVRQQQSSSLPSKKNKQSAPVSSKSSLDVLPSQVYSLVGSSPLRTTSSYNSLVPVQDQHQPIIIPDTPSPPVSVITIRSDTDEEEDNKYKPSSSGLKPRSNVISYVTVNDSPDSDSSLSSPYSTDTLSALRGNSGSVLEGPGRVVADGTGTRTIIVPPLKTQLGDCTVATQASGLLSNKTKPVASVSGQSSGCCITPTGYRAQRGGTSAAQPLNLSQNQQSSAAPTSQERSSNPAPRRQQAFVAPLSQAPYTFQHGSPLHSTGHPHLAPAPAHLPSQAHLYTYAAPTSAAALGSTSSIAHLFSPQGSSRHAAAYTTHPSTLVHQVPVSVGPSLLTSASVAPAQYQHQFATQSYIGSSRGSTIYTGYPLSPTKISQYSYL
Chain of Testis-specific serine/threonine-protein kinase 2 (Homo sapiens) (Q96PF2 whole entry): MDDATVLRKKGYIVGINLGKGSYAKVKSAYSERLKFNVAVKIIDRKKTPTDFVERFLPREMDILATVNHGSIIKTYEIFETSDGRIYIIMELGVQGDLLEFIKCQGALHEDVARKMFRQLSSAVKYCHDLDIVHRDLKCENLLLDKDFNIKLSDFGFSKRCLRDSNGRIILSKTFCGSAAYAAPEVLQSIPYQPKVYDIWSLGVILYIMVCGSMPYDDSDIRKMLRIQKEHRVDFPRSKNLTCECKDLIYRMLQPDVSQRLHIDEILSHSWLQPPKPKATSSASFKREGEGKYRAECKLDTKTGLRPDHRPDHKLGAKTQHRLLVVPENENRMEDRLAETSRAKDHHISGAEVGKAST
Chain of Serine/threonine-protein kinase Nek1 (Homo sapiens) (Q96PY6 whole entry): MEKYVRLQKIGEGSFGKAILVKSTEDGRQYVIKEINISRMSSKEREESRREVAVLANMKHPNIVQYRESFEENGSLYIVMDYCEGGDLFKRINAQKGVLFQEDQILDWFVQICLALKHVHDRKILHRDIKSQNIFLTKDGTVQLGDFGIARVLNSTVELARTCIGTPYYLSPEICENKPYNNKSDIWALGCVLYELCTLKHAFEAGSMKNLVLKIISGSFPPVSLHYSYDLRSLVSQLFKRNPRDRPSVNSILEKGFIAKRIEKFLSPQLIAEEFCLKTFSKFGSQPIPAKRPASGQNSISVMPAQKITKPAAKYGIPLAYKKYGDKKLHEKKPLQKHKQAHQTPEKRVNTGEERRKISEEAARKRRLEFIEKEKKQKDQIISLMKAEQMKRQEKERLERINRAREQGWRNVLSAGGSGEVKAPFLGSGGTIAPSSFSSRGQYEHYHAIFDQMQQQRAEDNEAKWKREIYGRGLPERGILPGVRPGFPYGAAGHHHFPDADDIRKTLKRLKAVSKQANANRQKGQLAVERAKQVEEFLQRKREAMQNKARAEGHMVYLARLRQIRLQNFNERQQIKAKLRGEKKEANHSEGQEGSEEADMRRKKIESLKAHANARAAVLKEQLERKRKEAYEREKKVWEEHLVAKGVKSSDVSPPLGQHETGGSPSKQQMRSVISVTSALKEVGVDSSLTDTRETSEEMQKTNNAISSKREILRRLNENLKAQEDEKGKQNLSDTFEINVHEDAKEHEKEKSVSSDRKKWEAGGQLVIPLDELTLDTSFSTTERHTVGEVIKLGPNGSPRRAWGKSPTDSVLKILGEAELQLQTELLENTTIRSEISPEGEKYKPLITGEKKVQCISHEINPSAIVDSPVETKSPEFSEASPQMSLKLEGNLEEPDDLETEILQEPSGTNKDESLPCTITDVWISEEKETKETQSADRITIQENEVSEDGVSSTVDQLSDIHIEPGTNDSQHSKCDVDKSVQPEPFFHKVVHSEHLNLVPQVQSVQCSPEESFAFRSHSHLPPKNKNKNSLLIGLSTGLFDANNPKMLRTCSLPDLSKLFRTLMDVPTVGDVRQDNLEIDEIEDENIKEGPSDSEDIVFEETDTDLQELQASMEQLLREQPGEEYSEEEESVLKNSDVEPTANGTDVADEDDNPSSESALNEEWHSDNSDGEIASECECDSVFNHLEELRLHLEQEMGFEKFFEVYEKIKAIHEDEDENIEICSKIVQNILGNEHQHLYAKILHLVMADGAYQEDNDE
Chain of Ephrin type-A receptor 4 (Homo sapiens) (P54764 whole entry): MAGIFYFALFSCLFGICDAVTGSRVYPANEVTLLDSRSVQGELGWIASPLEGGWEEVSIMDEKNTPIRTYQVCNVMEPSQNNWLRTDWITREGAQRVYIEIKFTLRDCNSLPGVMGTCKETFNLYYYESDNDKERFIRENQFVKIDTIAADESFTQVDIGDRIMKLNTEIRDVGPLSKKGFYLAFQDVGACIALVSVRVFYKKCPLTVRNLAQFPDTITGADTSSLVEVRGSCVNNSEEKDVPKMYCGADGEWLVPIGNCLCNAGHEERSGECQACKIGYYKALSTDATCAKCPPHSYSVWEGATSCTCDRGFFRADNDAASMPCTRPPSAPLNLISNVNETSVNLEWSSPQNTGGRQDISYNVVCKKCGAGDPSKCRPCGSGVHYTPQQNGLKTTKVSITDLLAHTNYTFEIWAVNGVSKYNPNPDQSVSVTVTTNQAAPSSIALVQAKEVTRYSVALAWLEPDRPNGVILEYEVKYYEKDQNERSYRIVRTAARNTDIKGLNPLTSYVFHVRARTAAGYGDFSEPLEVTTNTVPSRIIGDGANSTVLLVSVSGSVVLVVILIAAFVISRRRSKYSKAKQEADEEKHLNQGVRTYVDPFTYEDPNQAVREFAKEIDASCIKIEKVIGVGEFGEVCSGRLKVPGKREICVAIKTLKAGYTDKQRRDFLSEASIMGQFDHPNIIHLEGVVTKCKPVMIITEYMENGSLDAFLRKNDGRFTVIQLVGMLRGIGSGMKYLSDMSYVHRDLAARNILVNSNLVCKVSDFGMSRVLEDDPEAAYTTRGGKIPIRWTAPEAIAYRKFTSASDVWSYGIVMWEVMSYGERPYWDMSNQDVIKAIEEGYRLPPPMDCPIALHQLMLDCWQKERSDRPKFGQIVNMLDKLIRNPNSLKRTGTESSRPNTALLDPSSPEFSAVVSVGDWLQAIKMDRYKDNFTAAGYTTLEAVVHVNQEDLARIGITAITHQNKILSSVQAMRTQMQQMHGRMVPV

inhibition [1] [%] | inhibition [2] [%] | inhibition [3] [%] | inhibition [4] [%] | inhibition [6] [%] | inhibition [7] [%] | inhibition [8] [%] | inhibition [9] [%] | inhibition [10] [%] | inhibition [11] [%] | inhibition [12] [%] | inhibition [13] [%] | inhibition [14] [%] | inhibition [15] [%] | inhibition [16] [%] | inhibition [17] [%] | inhibition [18] [%] | inhibition [19] [%] | solubility at 24 h [20] [µM] | SMILES | inhibition [5] [%] | further results
1 | -3 | 18 | -1 | 0 | 3 | 84 | 88 | -3 | 25 | 0 | -1 | 0 | 2 | 23 | 0 | 100 | 99 | 161 (≈ 74.8 µg/mL) | CC(C)n1nc(C#Cc2cccc(NC(=O)c3cccc(C(F)(F)F)c3)c2)c2c(N)ncnc21 | 11 | inhibition [21]: 99%; inhibition [22]: 1%; inhibition [23]: 7%; Ratio IC50 [24]: 2 to 4; inhibition [25]: 36%; inhibition [26]: 1%; inhibition [27]: 5%; inhibition [28]: -1%; inhibition [29]: -4%; inhibition [30]: -10%; IC50 [31]: 2 nM; inhibition [32]: 67%; inhibition [33]: 99%
0 | 2 | 5 | 0 | 2 | 8 | 19 | 4 | -2 | 6 | 20 | 5 | 3 | 4 | 3 | -1 | 98 | 95 | 60 (≈ 28.3 µg/mL) | CC(C)n1nc(C#Cc2cccc3cc(-c4cccc(C(F)(F)F)c4)ncc23)c2c(N)ncnc21 | 11 | inhibition [21]: 97%; inhibition [22]: -1%; inhibition [23]: 10%; Ratio IC50 [24]: 2 to 4; inhibition [25]: 3%; inhibition [26]: -5%; inhibition [27]: -1%; inhibition [28]: -5%; inhibition [29]: -1%; inhibition [30]: 1%; IC50 [31]: 14 nM; inhibition [32]: 24%; inhibition [33]: 96%
